Laboratory results as given in patent US20140113931A1, “SUBSTITUTED PICOLINAMIDE KINASE INHIBITORS” (Portola Pharmaceuticals, Inc., priority 2012, published 2014).

Target: T1, full length active recombinant SYK enzyme (Homo sapiens, UniProt P43405)
T1 construct: full length active recombinant SYK enzyme (Millipore, CA); purchased Millipore, CA
Test: Inhibition of Syk tyrosine phosphorylation activity (LANCE TR-FRET kinase assay)
Type: biochemical
Conditions: 1 nM active SYK enzyme, 550 nM SYK-substrate, 100 μM ATP, 1 hour at room temperature
Procedure: The in vitro and in vivo human Syk activities of the inventive compounds can be determined by various procedures known in the art, such as a test for their ability to inhibit the activity of human plasma Syk. […] The IC50 value is the concentration (in nM) of the compound required to provide 50% inhibition of human Syk proteolytic activity.
An in vitro assay for detecting and measuring inhibition activity against Syk is as follows:
SYK tyrosine phosphorylation activity is measured using the LANCE™ Technology developed by Perkin Elmer Life and Analytical Sciences (Boston, Mass.). LANCE™ refers to homogeneous time resolved fluorometry applications using techniques such as time-resolved fluorescence resonance energy transfer assay (TR-FRET) (see generally for procedures in Perkin Elmer Application Note—How to Optimize a Tyrosine Kinase Assay Using Time Resolved Fluorescence-Based LANCE Detection, wwww.perkinelmer.com/lifesciences). The assay principle involves detection of a phosphorylated substrate using energy transfer from a phosphospecific europium-labeled antibody to streptavidin-allophycocyanin as an acceptor.
Molecules are reconstituted in 30% DMSO and serially diluted 1:3 with the final dilution containing DMSO in the absence of the candidate molecule. The final DMSO concentration in the assay is 3%. Kinase assays are performed as a two part reaction. The first reaction is a kinase reaction and which comprises of a candidate molecule, full length active recombinant SYK enzyme (Millipore, CA) and biotin-labeled SYK-specific substrate biotin-DEEDYESP-OH. The second reaction involves termination of the kinase reaction and the simultaneous addition of the detection reagents-europium-labeled anti-phosphotyrosine reagent (Eu-W1024-PY100, Perkin Elmer, Boston, Mass.) and Streptavidin-Allophycocyanin detection reagent (SA-APC, Prozyme, CA). The kinase reaction is performed in a black U-bottom 96-well microtitre plate. The final reaction volume is 50 μL and contains a final concentration of 1 nM active SYK enzyme, 550 nM SYK-substrate, and 100 μM ATP diluted in a buffer containing 50 mM Tris pH 7.5, 5 mM MgCl2, and 1 mM DTT. The reaction is allowed to proceed for 1 hour at room temperature. The quench buffer contains 100 mM Tris pH 7.5, 300 mM NaCl2, 20 mM EDTA, 0.02% Brij35, and 0.5% BSA. The detection reagents are added to the reaction mixture at the following dilutions-1:500 for Eu-W1024-PY100 and 1:250 for SA-APC. The kinase reaction is terminated by the addition of 50 μL quench buffer containing the detection reagents. The detection is allowed to proceed for 1 hr at room temperature. Detection of the phosphorlated substrate in the absence and presence of inhibitors is measured in the TR-FRET instrument, Analyst HT (Molecular Probes, Sunnyvale, Calif.) and the condition for measurements are set up using CriterionHost Release 2.0 (Molecular Probes, Sunnyvale, Calif.). The settings used are a follows: excitation 360 nm, emission 665-7.5 nm, beam splitter 350 nm 50/50, flash 100 pulses, delay 60 us, integration 400 us, z-height 2 mm. Inhibition of SYK-tyrosine kinase activity is calculated as the maximum response observed in the presence of inhibitor, compared to that in the absence of inhibitor. IC50s were derived by non-linear regression analysis.

`Cc1cc(Nc2cc(N[C@@H](C(N)=O)c3ccccc3)cnc2C(N)=O)sn1` [Example 42, (R)-5-(2-amino-2-oxo-1-phenylethylamino)-3-(3-methylisothiazol-5-ylamino)picolinamide] and `Cc1cc(Nc2cc(N[C@@H](C(N)=O)C(C)C)cnc2C(N)=O)sn1` [Example 7, (R)-5-(1-amino-3-methyl-1-oxobutan-2-ylamino)-3-(3-methylisothiazol-5-ylamino)picolinamide] fall in the same range of IC50: 10 to 100 nM for the first, 10 to 100 nM for the second.

`NC(=O)c1ncc(N[C@@H]2CCOC[C@@H]2N)cc1Nc1cc(-c2cccnc2)no1` [Example 53, 5-((3R,4R)-3-aminotetrahydro-2H-pyran-4-ylamino)-3-(3-(pyridin-3-yl)isoxazol-5-ylamino)picolinamide] and `NC(=O)c1ncc(N[C@@H]2CCOC[C@@H]2N)cc1Nc1cc(-c2ccncc2)no1` [Example 52, 5-((3R,4R)-3-aminotetrahydro-2H-pyran-4-ylamino)-3-(3-(pyridin-4-yl)isoxazol-5-ylamino)picolinamide] fall in the same range of IC50: 10 to 100 nM for the first, 10 to 100 nM for the second.

`CCc1cc(Nc2cc(N[C@@H]3CCCC[C@@H]3N)cnc2C(N)=O)on1` [Example 37, 5-((1R,2S)-2-aminocyclohexylamino)-3-(3-ethylisoxazol-5-ylamino)picolinamide] and `CC(C)c1cc(Nc2cc(N[C@@H]3CCCC[C@@H]3N)cnc2C(N)=O)on1` [Example 36, 5-((1R,2S)-2-aminocyclohexylamino)-3-(3-isopropylisoxazol-5-ylamino)picolinamide] fall in the same range of IC50: 10 to 100 nM for the first, 10 to 100 nM for the second.

`NC(=O)c1ncc(N[C@@H]2CCCC[C@@H]2N)cc1Nc1cccc(-c2ncco2)c1` [Example 55, 5-(((1R,2S)-2-aminocyclohexyl)amino)-3-((3-(oxazol-2-yl)phenyl)amino)picolinamide] and `NC(=O)c1ncc(N[C@@H]2CCCC[C@@H]2N)cc1Nc1cccc(-n2nccn2)c1` [Example 6, 3-(3-(2H-1,2,3-triazol-2-yl)phenylamino)-5-((1R,2S)-2-aminocyclohexylamino)picolinamide] fall in the same range of IC50: 10 to 100 nM for the first, 10 to 100 nM for the second.

`CC[C@@H](Nc1cnc(C(N)=O)c(Nc2cc(C3CC3)ns2)c1)C(N)=O` [Example 38, (R)-5-(1-amino-1-oxobutan-2-ylamino)-3-(3-cyclopropylisothiazol-5-ylamino)picolinamide] and `Cc1cc(Nc2cc(N[C@H](CC3CC3)C(N)=O)cnc2C(N)=O)sn1` [Example 3, (R)-5-(1-amino-3-cyclopropyl-1-oxopropan-2-ylamino)-3-(3-methylisothiazol-5-ylamino)picolinamide] fall in the same range of IC50: 1 to 10 nM for the first, 1 to 10 nM for the second.

Compared with `Cc1cc(Nc2cc(N[C@H](CCS(C)(=O)=O)C(N)=O)cnc2C(N)=O)sn1` [Example 45, (R)-5-(1-amino-4-(methylsulfonyl)-1-oxobutan-2-ylamino)-3-(3-methylisothiazol-5-ylamino)picolinamide], `Cc1cc(Nc2cc(N[C@H](CC(C)C)C(N)=O)cnc2C(N)=O)sn1` [Example 1, (R)-5-(1-amino-4-methyl-1-oxopentan-2-ylamino)-3-(3-methylisothiazol-5-ylamino)picolinamide] is lower in IC50: 10 to 100 nM for the first, 1 to 10 nM for the second.

Compared with `Cc1cc(Nc2cc(N[C@@H]3CCOC[C@@H]3N)cnc2C(N)=O)sn1` [Example 23, 5-((3R,4R)-3-aminotetrahydro-2H-pyran-4-ylamino)-3-(3-methylisothiazol-5-ylamino)picolinamide], `NC(=O)c1ncc(N[C@@H]2CCCC[C@@H]2N)cc1Nc1cnsc1` [Example 28, 5-((1R,2S)-2-aminocyclohexylamino)-3-(isothiazol-4-ylamino)picolinamide] is higher in IC50: 1 to 10 nM for the first, 100 to 1000 nM for the second.

First: NC(=O)c1ncc(N[C@@H]2CCCC[C@@H]2N)cc1Nc1cc(-c2ccncc2)no1 [Example 49, 5-((1R,2S)-2-aminocyclohexylamino)-3-(3-(pyridin-4-yl)isoxazol-5-ylamino)picolinamide]
Second: NC(=O)c1ncc(N[C@@H]2CCCC[C@@H]2N)cc1Nc1nc(-c2ccccc2)no1 [Example 29, 5-(((1R,2S)-2-aminocyclohexyl)amino)-3-((3-phenyl-1,2,4-oxadiazol-5-yl)amino)picolinamide]
The IC50 of the first is lower: 1 to 10 nM for the first, 10 to 100 nM for the second.

First: CCc1cc(Nc2cc(N[C@@H](C(N)=O)C(C)C)cnc2C(N)=O)sn1 [Example 33, (R)-5-(1-amino-3-methyl-1-oxobutan-2-ylamino)-3-(3-ethylisothiazol-5-ylamino)picolinamide]
Second: CC[C@@H](Nc1cnc(C(N)=O)c(Nc2cnc3cccnc3c2)c1)C(N)=O [Example 54, (R)-3-(1,5-naphthyridin-3-ylamino)-5-(1-amino-1-oxobutan-2-ylamino)picolinamide]
The IC50 of the first is lower: 10 to 100 nM for the first, 100 to 1000 nM for the second. The first is the more potent here.

In the case of `CC(C)(C)C[C@@H](Nc1cnc(C(N)=O)c(Nc2ccc3cccnc3c2)c1)C(N)=O` [Example 41, (R)-5-(1-amino-4,4-dimethyl-1-oxopentan-2-ylamino)-3-(quinolin-7-ylamino)picolinamide], the IC50 is reported as 1 to 10 nM.
